Here are results for 13 compounds from patent US20250361210A1, “3,4-DIHYDROQUINOLIN-2(1H)-ONE COMPOUND” (Kissei Pharmaceutical Co., Ltd., priority 2022, published 2025).

Where only a bound is given, the exact number is not on record here.

T2 sequence (P47750 22-764): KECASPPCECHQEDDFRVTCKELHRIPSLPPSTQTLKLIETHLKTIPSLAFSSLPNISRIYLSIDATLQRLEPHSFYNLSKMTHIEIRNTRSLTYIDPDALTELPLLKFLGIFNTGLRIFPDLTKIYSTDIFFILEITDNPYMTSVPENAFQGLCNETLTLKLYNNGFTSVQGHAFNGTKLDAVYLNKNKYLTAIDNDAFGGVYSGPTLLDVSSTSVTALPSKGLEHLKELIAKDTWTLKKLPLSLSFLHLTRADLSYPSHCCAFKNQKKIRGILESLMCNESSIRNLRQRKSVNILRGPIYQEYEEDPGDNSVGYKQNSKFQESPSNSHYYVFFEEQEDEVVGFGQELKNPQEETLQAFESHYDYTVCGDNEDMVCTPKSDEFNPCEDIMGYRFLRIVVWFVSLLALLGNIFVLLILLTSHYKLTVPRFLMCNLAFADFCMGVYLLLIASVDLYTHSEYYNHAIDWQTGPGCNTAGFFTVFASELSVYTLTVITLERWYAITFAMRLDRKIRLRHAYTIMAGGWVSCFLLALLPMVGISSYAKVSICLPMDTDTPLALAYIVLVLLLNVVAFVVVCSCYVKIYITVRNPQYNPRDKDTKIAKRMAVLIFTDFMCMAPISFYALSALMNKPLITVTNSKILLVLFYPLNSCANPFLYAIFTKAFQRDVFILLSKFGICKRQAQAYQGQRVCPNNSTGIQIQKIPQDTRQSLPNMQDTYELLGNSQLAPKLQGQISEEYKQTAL

For the first test, the target named is T1, human TSHR (Homo sapiens, UniProt P16473).
T1 construct: expressed in transfected cells
T1 sequence (P16473 21-764): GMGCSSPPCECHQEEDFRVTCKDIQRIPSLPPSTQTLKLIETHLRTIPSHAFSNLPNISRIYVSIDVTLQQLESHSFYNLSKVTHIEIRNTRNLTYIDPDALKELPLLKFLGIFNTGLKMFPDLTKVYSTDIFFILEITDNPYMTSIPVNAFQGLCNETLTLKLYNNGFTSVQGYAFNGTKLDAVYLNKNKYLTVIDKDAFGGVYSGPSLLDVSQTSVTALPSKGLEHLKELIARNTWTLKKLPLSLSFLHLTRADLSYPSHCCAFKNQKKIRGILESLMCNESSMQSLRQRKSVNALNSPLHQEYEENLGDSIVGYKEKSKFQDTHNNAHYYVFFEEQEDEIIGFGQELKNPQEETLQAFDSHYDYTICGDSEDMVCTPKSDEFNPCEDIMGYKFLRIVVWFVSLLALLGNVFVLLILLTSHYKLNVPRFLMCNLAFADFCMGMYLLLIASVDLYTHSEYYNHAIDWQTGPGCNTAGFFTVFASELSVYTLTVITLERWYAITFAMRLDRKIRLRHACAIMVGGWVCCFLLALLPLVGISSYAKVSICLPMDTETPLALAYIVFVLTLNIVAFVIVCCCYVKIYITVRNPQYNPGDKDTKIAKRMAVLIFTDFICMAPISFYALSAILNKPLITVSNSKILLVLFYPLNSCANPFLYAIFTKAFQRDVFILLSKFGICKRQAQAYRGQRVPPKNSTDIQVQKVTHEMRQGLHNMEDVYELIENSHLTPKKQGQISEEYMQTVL
In words: Antagonist activity using TSH-induced cAMP production in human TSHR-stably expressing CHO cells. It is filed as cell-based. To be noted: human TSH 50 ng/mL. The procedure:
Measurement of Antagonist Activity Using TSH-Induced cAMP Production in Human TSHR-Stably Expressing CHO Cells as an Indicator
The human TSHR gene sequence (reference number NM_000369.2) was inserted into the multicloning site of pcDNA3.1(+). The constructed plasmid vector was introduced into CHO cells using the lipofection method to establish human TSHR-stably expressing CHO cells. The obtained cells were seeded at 5×10^4 cells/well in a 96-well poly-D-lysine-coated plate, and cultured in an F12 culture medium containing 10% FBS, 400 μg/mL of G418, 50 U/mL of penicillin and 50 μg/mL of streptomycin under conditions of 37° C. and 5% CO2 for 1 day. After the culture medium was removed, the cells were washed twice with 100 μL of an assay buffer solution (Hanks' Balanced Salt Solution containing 20 mM HEPES and 1 mM IBMX) per well. 30 μL of a test compound-containing assay buffer solution was added to the well and incubated at room temperature for 15 minutes. Then, 30 μL of an assay buffer solution containing human TSH (final concentration 50 ng/mL, R&D Systems, Inc.) was added, and incubated at 37° C. for 1 hour. The supernatant was removed, a Lysis and Detection Buffer 2 (Cisbio) was added, and the mixture was incubated at room temperature for 1 hour to prepare a cell lysate. According to the instruction manual of a cAMP Gs HiRange kit (Cisbio), the cell lysate, d2-labeled cAMP and anti-cAMP Europium Cryptate labeled antibodies (Cisbio) were reacted in a 384-well white microplate. Then, a fluorescence intensity ratio (measurement wavelength 665 nm/620 nm) was measured using a multi-plate reader (PHERAstar FSX, BMG LABTECH, Japan). The fluorescence intensity ratio of each sample was converted to a cAMP content using a standard curve. The cAMP content was converted as a percentage of the control value to calculate the cAMP production rate. The CAMP production rate was plotted against the test compound concentration using Prism (Graph Pad Software Inc.) to calculate the IC50 value. The IC50 of each test compound is shown in the above tables. In the tables, IC50<0.5 μM: A, 0.5 μM≤IC50<3.0 μM: B, 3.0 μM≤IC50<30 μM: C are shown.
In general terms: Cyclic AMP is a second messenger, typically raised through Gs and lowered through Gi signalling.
The compound `CN1C(=O)[C@H](NC(N)=O)Cc2ccc(C(F)(F)F)c(Oc3cc(F)ccc3Cl)c21` [Example 74, ((3R)-8-(2-chloro-5-fluorophenoxy)-1-methyl-2-oxo-7-(trifluoromethyl)-1,2,3,4-tetrahydroquinolin-3-yl)urea] yielded an IC50 of less than 500 nM.

`CN1C(=O)[C@H](NC(N)=O)Cc2ccc(C(C)(F)F)c(Oc3cc(F)ccc3Cl)c21` [Example 75, ((3R)-8-(2-chloro-5-fluorophenoxy)-7-(1,1-difluoroethyl)-1-methyl-2-oxo-1,2,3,4-tetrahydroquinolin-3-yl)urea] registered an IC50 of less than 500 nM.

In turn, `CCc1ccc2c(c1Oc1cc(F)ccc1Cl)N(C)C(=O)[C@H](NC(N)=O)C2` [Example 76, ((3R)-8-(2-chloro-5-fluorophenoxy)-7-ethyl-1-methyl-2-oxo-1,2,3,4-tetrahydroquinolin-3-yl)urea] registered a half-inhibitory concentration (IC50) of less than 500 nM.

As to `CC(c1ccccc1Cl)c1cccc2c1N(C)C(=O)[C@H](NC(N)=O)C2` (stereo partly drawn) [Example 77, ((3R)-8-(1-(2-chlorophenyl)ethyl)-1-methyl-2-oxo-1,2,3,4-tetrahydroquinolin-3-yl)urea], the 50% inhibitory concentration (IC50) was less than 500 nM.

As for `CC(c1ccccc1C(F)(F)F)c1cccc2c1N(C)C(=O)[C@H](NC(N)=O)C2` (stereo partly drawn) [Example 78, ((3R)-1-Methyl-2-oxo-8-(1-(2-(trifluoromethyl)phenyl)ethyl)-1,2,3,4-tetrahydroquinolin-3-yl)urea], the IC50 is less than 500 nM.

`CC(c1cc(F)ccc1Cl)c1cccc2c1N(C)C(=O)[C@H](NC(N)=O)C2` (stereo partly shown) [Example 79] gave an IC50 of less than 500 nM.

As to `CNC(=O)N[C@@H]1Cc2ccc(C)c(Oc3cc(F)ccc3Cl)c2N(C)C1=O` [Example 80, 1-((3R)-8-(2-chloro-5-fluorophenoxy)-1,7-dimethyl-2-oxo-1,2,3,4-tetrahydroquinolin-3-yl)-3-methylurea], the IC50 was less than 500 nM.

For the compound `CC(=O)N[C@@H]1Cc2ccc(C)c(Oc3cc(F)ccc3Cl)c2N(C)C1=O` [Example 81, N-((3R)-8-(2-chloro-5-fluorophenoxy)-1,7-dimethyl-2-oxo-1,2,3,4-tetrahydroquinolin-3-yl)acetamide], the IC50 was less than 500 nM.

The compound `Cc1ccc2c(c1Oc1cc(F)ccc1Cl)N(C)C(=O)[C@H](NC(=O)C1CC1)C2` [Example 82] gave an IC50 of less than 500 nM.

For the compound `Cc1ccc2c(c1Oc1cc(F)ccc1Cl)N(C)C(=O)[C@H](NC(=O)C(Cl)Cl)C2` [Example 83], the IC50 is less than 500 nM.

For the compound `CN1C(=O)[C@H](NC(=O)C2CC2)Cc2cccc(Oc3cc(F)ccc3Cl)c21` [Example 84], the IC50 was less than 500 nM.

`Cc1ccc2c(c1Oc1cc(F)ccc1Cl)N(C)C(=O)[C@H](NC(=O)CC(F)(F)F)C2` [Example 85, N-((3R)-8-(2-chloro-5-fluorophenoxy)-1,7-dimethyl-2-oxo-1,2,3,4-tetrahydroquinolin-3-yl)-3,3,3-trifluoropropanamide] gave a half-maximal inhibitory concentration (IC50) of less than 500 nM.

A further test addresses T2, TSHR (Mus musculus, UniProt P47750).
T2 construct: host or cells: mice (in vivo)
Test: not given
The conditions noted are these: mice in which TRH has been administered and mice in which thyroid stimulating antibodies M22 has been administered; cited from earlier work.
With `COc1ccc(C2Nc3ccccc3C(=O)N2Cc2ccco2)cc1COc1c(C)cc(NC(C)=O)cc1C` (stereo not shown) [NCGC00242364], the “blood T4 concentration” value is reported as “blood T4 concentration lowering effect”.

As a reminder, the IC50 is the concentration at which inhibition is half-maximal. Read a high IC50 as lower potency.
